US20130108702A1, “COPPER/SILICA NANOPARTICLES, METHODS OF MAKING, AND METHODS OF USE” (priority 2011, published 2013)

Tests used:
E. coli = type: cell-based, Escherichia coli (ATCC 35218); settings: ppm of silver, organism not given
Protocol: (§1) Antibacterial properties of C—S CuSiNP and AgSiNG materials were evaluated against a gram positive Bacillus subtilis (B. subtilis, ATCC 9372) and a gram negative Escherichia coli (E. coli, ATCC 35218) organism. For all antibacterial assays, bacterial concentration of 10^5 cells/mL was considered. Copper sulfate with same metallic copper concentration was used as positive controls and silica nanoparticle (without Cu loading) was used as negative control.
(§2) Two sets of different concentrations of C—S CuSiNP were made in LB broth (0.49, 1.2, 2.4, 4.9, 7.2 and 9.8 ppm copper concentration) to a final volume of 10 mL. 250 μL (10^5 cells/mL) of E. coli and B. subtilis were added to set 1 and 2 respectively. Silica nanoparticle was used as negative control and copper sulfate with equivalent amount of copper was used as positive control. […]
(§3) The growth inhibitory effects of C—S CuSiNP and AgSiNG against E. coli and B. subtilis were studied in liquid media (FIG. 2.3 and FIG. 2.4). Bacterial growth with different concentrations of C—S CuSiNP and AgSiNG (0.49 to 9.8 μg mL^−1) was monitored after 24 hours of incubation at 37° C. by measuring the optical density at 600 nm using Teysche800 spectrophotometer. Since the turbidity of silica based material can interfere with the optical density reading, the background measurement was subtracted to calculate the final reading.

B. subtilis = type: cell-based, Bacillus subtilis (ATCC 9372); settings: ppm of silver, organism not given
Protocol: as §1, §2, §3

Compound: O=[N+]([O-])[O-].[Ag+] [silver nitrate]
- silver concentration at which growth inhibition can be seen (E. coli): 2.4 ppm
- silver concentration at which growth inhibition can be seen (B. subtilis): 2.4 ppm
